Values quoted from earlier work in patent US20100137844A1, “Delivery devices for modulating inflammation” (Searete LLC, a limited liability corporation of the State …, priority 2008, published 2010).

Experiments:
[1] = 400 mg infused over one hour, single agent
Fyn = Fyn (Homo sapiens, UniProt P06241); conditions: at nanomolar concentrations
[2] = test system: proteasomal activity in cultured breast cancer cells; conditions: via copper binding

Sequence of Fyn (P06241 whole entry): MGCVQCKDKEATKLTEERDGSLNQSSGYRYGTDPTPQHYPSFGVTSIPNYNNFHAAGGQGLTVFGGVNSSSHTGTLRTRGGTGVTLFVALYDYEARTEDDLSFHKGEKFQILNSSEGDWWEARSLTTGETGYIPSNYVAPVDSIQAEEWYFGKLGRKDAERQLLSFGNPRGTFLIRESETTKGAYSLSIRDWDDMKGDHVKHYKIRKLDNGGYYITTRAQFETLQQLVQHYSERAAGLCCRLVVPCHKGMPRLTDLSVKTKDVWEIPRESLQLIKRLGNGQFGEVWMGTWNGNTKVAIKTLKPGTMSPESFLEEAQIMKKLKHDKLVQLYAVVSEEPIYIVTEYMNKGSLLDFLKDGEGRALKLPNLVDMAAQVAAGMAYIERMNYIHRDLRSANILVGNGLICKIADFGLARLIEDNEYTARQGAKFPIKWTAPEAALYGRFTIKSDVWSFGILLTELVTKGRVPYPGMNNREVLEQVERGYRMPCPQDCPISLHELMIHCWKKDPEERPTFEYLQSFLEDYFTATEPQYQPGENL

Cl.Cl.Nc1ccccc1Oc1ccc2c(N)nsc2c1 [Example M62812, 3-amino-6-(2-aminophenoxy)-1,2-benzisothiazole dihydrochloride]
prevention of lethal septic shock (mice): prevents lethal septic shock in mice

CCN(CC)CCCC(C)Nc1ccnc2cc(Cl)ccc12.O=P(O)(O)O.O=P(O)(O)O (centres unmarked) [chloroquine phosphate, 7-chloro-4-[[4-(diethylamino)-1-methylbutyl]amino]quinoline phosphate (1:2)]
tolerability of intravenous infusion [1]: without complication

Cc1nc(Nc2ncc(C(=O)Nc3c(C)cccc3Cl)s2)cc(N2CCN(CCO)CC2)n1.O [dasatinib, N-(2-chloro-6-methylphenyl)-2-[[6-[4-(2-hydroxyethyl)-1-piperazinyl]-2-methyl-4-pyrimidinyl]amino]-5-thiazolecarboxamide, monohydrate]
inhibition of Fyn (Fyn): inhibits

CCN(CC)C(=S)SSC(=S)N(CC)CC [disulfiram, 1-(diethylthiocarbamoyldisulfanyl)-N,N-diethyl-methanethioamide]
proteasomal activity [2]: inhibits proteasomal activity
inhibition of aldehyde dehydrogenase (aldehyde dehydrogenase): inhibits aldehyde dehydrogenase without toxicity
